Reference: ChEMBL document CHEMBL1149126, “3-phenyl-6-(2-pyridyl)methyloxy-1,2,4-triazolo[3,4-a]phthalazines and analogues: high-affinity gamma-aminobutyric acid-A benzodiazepine receptor ligands with alpha 2, alpha 3, and alpha 5-subtype binding selectivity over alpha 1” (J Med Chem, 2004)

Molecular target: T1, GABA-A receptor; alpha-2/beta-3/gamma-2 (Homo sapiens, UniProt P18507+P28472+P47869)
T1 sequence (P18507 whole entry): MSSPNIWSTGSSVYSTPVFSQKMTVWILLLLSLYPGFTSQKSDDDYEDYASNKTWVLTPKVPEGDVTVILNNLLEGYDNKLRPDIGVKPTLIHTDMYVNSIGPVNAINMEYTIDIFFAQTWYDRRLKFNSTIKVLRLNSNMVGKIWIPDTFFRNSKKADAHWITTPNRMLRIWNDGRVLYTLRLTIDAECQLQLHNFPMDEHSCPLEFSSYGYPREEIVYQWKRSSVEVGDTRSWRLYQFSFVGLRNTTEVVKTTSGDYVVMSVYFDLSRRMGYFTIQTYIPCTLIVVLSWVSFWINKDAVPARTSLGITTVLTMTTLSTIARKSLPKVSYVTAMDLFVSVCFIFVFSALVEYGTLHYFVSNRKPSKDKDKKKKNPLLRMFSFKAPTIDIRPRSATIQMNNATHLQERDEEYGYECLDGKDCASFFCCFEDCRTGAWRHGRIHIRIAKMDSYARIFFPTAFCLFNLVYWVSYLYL
T1 sequence (P28472 whole entry): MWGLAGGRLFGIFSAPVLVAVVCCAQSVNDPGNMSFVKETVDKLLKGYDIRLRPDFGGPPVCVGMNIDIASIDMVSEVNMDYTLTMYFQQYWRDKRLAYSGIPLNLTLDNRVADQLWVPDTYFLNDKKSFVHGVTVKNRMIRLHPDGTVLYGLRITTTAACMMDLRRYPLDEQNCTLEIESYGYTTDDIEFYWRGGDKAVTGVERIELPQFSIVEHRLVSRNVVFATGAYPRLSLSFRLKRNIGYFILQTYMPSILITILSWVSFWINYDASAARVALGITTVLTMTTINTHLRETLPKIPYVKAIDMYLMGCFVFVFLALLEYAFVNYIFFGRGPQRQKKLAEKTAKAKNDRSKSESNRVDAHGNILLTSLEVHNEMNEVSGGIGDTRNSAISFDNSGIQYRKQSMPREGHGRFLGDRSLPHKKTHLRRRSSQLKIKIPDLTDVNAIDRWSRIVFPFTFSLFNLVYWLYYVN
T1 sequence (P47869 whole entry): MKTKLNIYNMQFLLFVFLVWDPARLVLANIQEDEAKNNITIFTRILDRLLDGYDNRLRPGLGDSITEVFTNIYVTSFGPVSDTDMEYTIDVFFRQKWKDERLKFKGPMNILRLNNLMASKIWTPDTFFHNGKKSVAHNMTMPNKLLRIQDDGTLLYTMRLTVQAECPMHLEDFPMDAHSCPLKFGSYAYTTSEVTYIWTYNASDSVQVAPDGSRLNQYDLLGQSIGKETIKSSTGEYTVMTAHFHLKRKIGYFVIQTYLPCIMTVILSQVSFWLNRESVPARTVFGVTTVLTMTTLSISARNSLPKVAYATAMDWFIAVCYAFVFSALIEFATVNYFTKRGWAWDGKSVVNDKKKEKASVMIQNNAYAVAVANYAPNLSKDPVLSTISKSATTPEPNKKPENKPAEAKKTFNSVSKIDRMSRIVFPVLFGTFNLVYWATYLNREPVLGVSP
Test: Binding affinity for human GABA-A receptor alpha-2-beta-3-gamma-2 subunits in L(tk-) cells
Assay type: cell-based

Ki [nM] | Structure (SMILES)
380 | Clc1ccc(COc2nn3c(-c4ccccc4)nnc3c3ccccc23)cc1
44 | Cc1cccc2c1c(OCc1ccccn1)nn1c(-c3ccccc3)nnc21
16 | c1ccc(-c2nnc3c4ccccc4c(OCc4cccnc4)nn23)cc1
340 | c1ccc(Cc2nnc3c4ccccc4c(OCc4ccccn4)nn23)cc1
16 | c1ccc(COc2nn3c(-c4ccccc4)nnc3c3ccccc23)cc1
> 1000 | c1ccc(Oc2nn3c(-c4ccccc4)nnc3c3ccccc23)cc1
> 1000 | c1ccc(CSc2nn3c(-c4ccccc4)nnc3c3ccccc23)cc1
3.7 | Fc1ccc(-c2nnc3c4ccccc4c(OCc4ccccn4)nn23)cc1
2.9 | c1ccc(-c2nnc3c4ccccc4c(OCc4ccncn4)nn23)cc1
520 | CC(Oc1nn2c(-c3ccccc3)nnc2c2ccccc12)c1ccccn1 (stereo not drawn)
160 | COc1nn2c(-c3ccccc3)nnc2c2ccccc12

Molecular target: T2, GABA-A receptor; alpha-1/beta-3/gamma-2 (Homo sapiens, UniProt P14867+P18507+P28472)
T2 sequence (P14867 whole entry): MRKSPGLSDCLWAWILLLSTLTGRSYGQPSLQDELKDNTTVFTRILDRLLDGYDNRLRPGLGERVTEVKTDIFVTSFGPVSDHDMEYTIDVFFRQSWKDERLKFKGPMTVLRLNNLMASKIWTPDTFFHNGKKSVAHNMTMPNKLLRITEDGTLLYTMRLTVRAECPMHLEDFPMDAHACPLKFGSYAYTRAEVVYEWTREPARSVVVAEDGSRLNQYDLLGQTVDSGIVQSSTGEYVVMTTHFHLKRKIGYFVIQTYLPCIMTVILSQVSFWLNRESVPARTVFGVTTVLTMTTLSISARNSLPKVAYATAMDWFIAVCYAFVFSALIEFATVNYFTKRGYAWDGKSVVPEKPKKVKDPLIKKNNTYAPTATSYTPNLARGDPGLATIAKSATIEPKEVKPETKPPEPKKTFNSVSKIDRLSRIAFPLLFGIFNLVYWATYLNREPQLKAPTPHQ
T2 sequence (P18507 whole entry): T1 sequence (P18507 whole entry)
T2 sequence (P28472 whole entry): T1 sequence (P28472 whole entry)
Test: Binding affinity for human GABA-A receptor alpha-1-beta-3-gamma-2 subunits in L(tk-) cells

Ki [nM] | Structure (SMILES)
480 | Clc1ccc(COc2nn3c(-c4ccccc4)nnc3c3ccccc23)cc1
56 | Cc1cccc2c1c(OCc1ccccn1)nn1c(-c3ccccc3)nnc21
19 | c1ccc(-c2nnc3c4ccccc4c(OCc4cccnc4)nn23)cc1
260 | c1ccc(Cc2nnc3c4ccccc4c(OCc4ccccn4)nn23)cc1
280 | c1ccc(COc2nn3c(-c4ccccc4)nnc3c3ccccc23)cc1
> 1000 | c1ccc(Oc2nn3c(-c4ccccc4)nnc3c3ccccc23)cc1
> 1000 | c1ccc(CSc2nn3c(-c4ccccc4)nnc3c3ccccc23)cc1
3.9 | Fc1ccc(-c2nnc3c4ccccc4c(OCc4ccccn4)nn23)cc1
2.3 | c1ccc(-c2nnc3c4ccccc4c(OCc4ccncn4)nn23)cc1
960 | CC(Oc1nn2c(-c3ccccc3)nnc2c2ccccc12)c1ccccn1 (stereo not drawn)
140 | COc1nn2c(-c3ccccc3)nnc2c2ccccc12

Molecular target: T3, GABA-A receptor; alpha-5/beta-3/gamma-2 (Homo sapiens, UniProt P18507+P28472+P31644)
T3 sequence (P18507 whole entry): T1 sequence (P18507 whole entry)
T3 sequence (P28472 whole entry): T1 sequence (P28472 whole entry)
T3 sequence (P31644 whole entry): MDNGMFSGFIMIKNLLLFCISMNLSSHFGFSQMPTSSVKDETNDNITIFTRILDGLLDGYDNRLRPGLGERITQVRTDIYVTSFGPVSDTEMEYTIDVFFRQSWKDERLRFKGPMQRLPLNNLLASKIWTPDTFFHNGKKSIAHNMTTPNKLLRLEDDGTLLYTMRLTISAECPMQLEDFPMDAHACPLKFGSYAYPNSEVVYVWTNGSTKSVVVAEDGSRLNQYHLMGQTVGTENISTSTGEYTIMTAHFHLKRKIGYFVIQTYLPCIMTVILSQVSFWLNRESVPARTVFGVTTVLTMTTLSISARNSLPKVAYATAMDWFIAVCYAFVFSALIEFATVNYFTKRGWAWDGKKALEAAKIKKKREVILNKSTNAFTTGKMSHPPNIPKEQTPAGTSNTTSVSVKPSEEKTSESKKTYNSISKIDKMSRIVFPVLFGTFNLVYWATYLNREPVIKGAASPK
Test: Binding affinity for human GABA-A receptor alpha-5-beta-3-gamma-2 subunits in L(tk-) cells
Assay type: cell-based

Ki [nM] | Structure (SMILES)
170 | Clc1ccc(COc2nn3c(-c4ccccc4)nnc3c3ccccc23)cc1
20 | Cc1cccc2c1c(OCc1ccccn1)nn1c(-c3ccccc3)nnc21
31 | c1ccc(-c2nnc3c4ccccc4c(OCc4cccnc4)nn23)cc1
18 | c1ccc(Cc2nnc3c4ccccc4c(OCc4ccccn4)nn23)cc1
38 | c1ccc(COc2nn3c(-c4ccccc4)nnc3c3ccccc23)cc1
> 1000 | c1ccc(Oc2nn3c(-c4ccccc4)nnc3c3ccccc23)cc1
> 1000 | c1ccc(CSc2nn3c(-c4ccccc4)nnc3c3ccccc23)cc1
1.7 | Fc1ccc(-c2nnc3c4ccccc4c(OCc4ccccn4)nn23)cc1
0.5 | c1ccc(-c2nnc3c4ccccc4c(OCc4ccncn4)nn23)cc1
140 | CC(Oc1nn2c(-c3ccccc3)nnc2c2ccccc12)c1ccccn1 (stereo not drawn)
39 | COc1nn2c(-c3ccccc3)nnc2c2ccccc12

Molecular target: GABA-A receptor; alpha-3/beta-3/gamma-2 (Homo sapiens) (UniProt P18507+P28472+P34903)
Test: Maximum percent change compared to GABA EC20 against GABA-A alpha-3-beta-3-gamma-2 receptor
Assay type: functional

Efficacy [%] | Structure (SMILES)
39 | Cc1cccc2c1c(OCc1ccccn1)nn1c(-c3ccccc3)nnc21
25 | CC(Oc1nn2c(-c3ccccc3)nnc2c2ccccc12)c1ccccn1 (stereo not drawn)

Molecular target: T4, GABA-A receptor; alpha-1/beta-3/gamma-2 (Homo sapiens) (UniProt P14867+P18507+P28472)
Test: (§1) Maximum percent change compared to GABA EC20 against GABA-A alpha-1-beta-3-gamma-2 receptor
Assay type: protein-complex assay

Efficacy [%] | Structure (SMILES)
36 | CC(Oc1nn2c(-c3ccccc3)nnc2c2ccccc12)c1ccccn1 (stereo not drawn)

Molecular target: T4, GABA-A receptor; alpha-1/beta-3/gamma-2 (Homo sapiens)
Test: as §1
Assay type: functional

Efficacy [%] | Structure (SMILES)
43 | Cc1cccc2c1c(OCc1ccccn1)nn1c(-c3ccccc3)nnc21

Molecular target: T5, GABA-A receptor; alpha-3/beta-3/gamma-2 (Homo sapiens, UniProt P18507+P28472+P34903)
T5 sequence (P18507 whole entry): T1 sequence (P18507 whole entry)
T5 sequence (P28472 whole entry): T1 sequence (P28472 whole entry)
T5 sequence (P34903 whole entry): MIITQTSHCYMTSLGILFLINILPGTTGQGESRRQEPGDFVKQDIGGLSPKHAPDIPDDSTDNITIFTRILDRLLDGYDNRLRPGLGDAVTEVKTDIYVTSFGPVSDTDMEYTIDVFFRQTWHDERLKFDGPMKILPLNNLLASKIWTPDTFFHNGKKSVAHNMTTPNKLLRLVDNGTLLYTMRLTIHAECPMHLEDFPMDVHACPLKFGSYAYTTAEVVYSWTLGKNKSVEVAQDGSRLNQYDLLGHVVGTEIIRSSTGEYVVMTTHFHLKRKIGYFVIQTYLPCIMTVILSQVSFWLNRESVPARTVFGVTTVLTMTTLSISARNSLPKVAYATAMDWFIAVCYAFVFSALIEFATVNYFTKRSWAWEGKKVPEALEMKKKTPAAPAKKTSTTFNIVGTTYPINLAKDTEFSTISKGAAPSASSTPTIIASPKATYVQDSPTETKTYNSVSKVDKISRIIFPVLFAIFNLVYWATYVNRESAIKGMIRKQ
Test: Binding affinity for human GABA-A receptor alpha-3-beta-3-gamma-2 subunits in L(tk-) cells
Assay type: cell-based

Ki [nM] | Structure (SMILES)
250 | Clc1ccc(COc2nn3c(-c4ccccc4)nnc3c3ccccc23)cc1
35 | Cc1cccc2c1c(OCc1ccccn1)nn1c(-c3ccccc3)nnc21
19 | c1ccc(-c2nnc3c4ccccc4c(OCc4cccnc4)nn23)cc1
190 | c1ccc(Cc2nnc3c4ccccc4c(OCc4ccccn4)nn23)cc1
41 | c1ccc(COc2nn3c(-c4ccccc4)nnc3c3ccccc23)cc1
> 1000 | c1ccc(Oc2nn3c(-c4ccccc4)nnc3c3ccccc23)cc1
> 1000 | c1ccc(CSc2nn3c(-c4ccccc4)nnc3c3ccccc23)cc1
2.4 | Fc1ccc(-c2nnc3c4ccccc4c(OCc4ccccn4)nn23)cc1
1.3 | c1ccc(-c2nnc3c4ccccc4c(OCc4ccncn4)nn23)cc1
320 | CC(Oc1nn2c(-c3ccccc3)nnc2c2ccccc12)c1ccccn1 (stereo not drawn)
120 | COc1nn2c(-c3ccccc3)nnc2c2ccccc12
